Here are results for ten compounds from patent publication US6825230B2, “Spiro and dispiro 1,2,4-trixolane antimalarials” (Medicines for Malaria Venture MMV, priority 2002, dated 2004).

Experiment [1] concerns chloroquine-resistant K1 strain of P. falciparum. As to the kind of experiment: In vitro antimalarial semiautomated microdilution assay ([3H]-hypoxanthine incorporation), K1 strain. The format is cell-based, Plasmodium falciparum. Conditions: Plasmodium falciparum. The essentials:
(§1)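 Asynchronous stock-culture parasites (intraerythrocytic forms), serial compound dilutions; readout [3H]-hypoxanthine uptake; IC50 via Logit regression.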

For experiment [2], the system named is chloroquine-sensitive NF54 strain of P. falciparum. Put plainly: In vitro antimalarial semiautomated microdilution assay ([3H]-hypoxanthine incorporation), NF54 strain. In kind it is cell-based, Plasmodium falciparum. The note with it: Plasmodium falciparum. The gist of the method: as §1
The test system of experiment [3] is ANKA strain of P. berghei. As to the kind of experiment: Single dose STI in vivo screen in infected mice. Further details: species or system Plasmodium berghei. The note with it: for Survival (days) 3 mg/kg SSV po / Activity (%) 3 mg/kg SSV po: single 3 mg/kg po in SSV; for Activity (%) 3 mg/kg SSV po / Activity (%) 10 mg/kg SSV po: percent reduction in parasitemia on day 3; for Survival (days) 10 mg/kg SSV po: single 10 mg/kg po in SSV, untreated 6-7 days; for Activity (%) 10 mg/kg SSV po: single 10 mg/kg po in standard suspending vehicle (SSV) on day 1 post-infection.

Where [4] appears, read: chloroquine-resistant K1 strain, 72 h incubation, read-out: IC50 (ng/ml) K1.
[5] abbreviates: chloroquine-sensitive NF54 strain, 72 h incubation, read-out: IC50 (ng/ml) NF54.
[6] abbreviates: K1, 72 h, read-out: IC50 (ng/ml) K1, chloroquine-resistant K1 strain, 72 h incubation.
Where [7] appears, read: NF54, 72 h, read-out: IC50 (ng/ml) NF54, chloroquine-sensitive NF54 strain, 72 h incubation.

Converted amounts (≈) assume the structure as drawn. Like-named read-outs stand apart in the source and are kept apart here.

For `c1ccc(CNC[C@H]2CC[C@]3(CC2)OO[C@]2(O3)C3CC4CC(C3)CC2C4)nc1` [OZ292], in experiment [1] (setting [4]), the IC50 was found to be 0.19 ng/mL (≈ 0.494 nM). In addition, the IC50 in experiment [2] (setting [5]) was found to be 0.26 ng/mL (≈ 0.676 nM). Further, in experiment [3], the “Survival (days) 3 mg/kg SSV po” value turned out to be 6.6 days, the “Activity (%) 3 mg/kg SSV po” value amounted to 46%, the “Survival (days) 10 mg/kg SSV po” value was 7.0 days and the “Activity (%) 10 mg/kg SSV po” value was determined as 74%.
In the case of `O=CN1CCN(C(=O)C[C@H]2CC[C@]3(CC2)OO[C@]2(O3)C3CC4CC(C3)CC2C4)CC1` [OZ294], the IC50 in experiment [1] (setting [4]) was 0.39 ng/mL (≈ 0.932 nM). Also, the IC50 in experiment [2] (setting [5]) was 0.63 ng/mL (≈ 1.51 nM). In experiment [3], the “Survival (days) 3 mg/kg SSV po” value amounted to 7.4 days, the “Activity (%) 3 mg/kg SSV po” value was 70%, the “Survival (days) 10 mg/kg SSV po” value is reported as 8.6 days and the “Activity (%) 10 mg/kg SSV po” value amounted to 99.79%.
For the compound `O=C(C[C@H]1CC[C@]2(CC1)OO[C@]1(O2)C2CC3CC(C2)CC1C3)NCc1ccccn1` [OZ295], in experiment [1] (setting [4]), the IC50 is 0.44 ng/mL (≈ 1.07 nM). Also, the IC50 in experiment [2] (setting [5]) worked out at 0.75 ng/mL (≈ 1.82 nM). Further, in experiment [3], the “Survival (days) 3 mg/kg SSV po” value is given as 6.4 days, the “Activity (%) 3 mg/kg SSV po” value turned out to be 35%, the “Survival (days) 10 mg/kg SSV po” value came to 7.0 days and the “Activity (%) 10 mg/kg SSV po” value was 47%.
On to `O=C1CN(C(=O)C[C@H]2CC[C@]3(CC2)OO[C@]2(O3)C3CC4CC(C3)CC2C4)CCN1` [OZ296], for which the IC50 in experiment [1] (setting [4]) was 0.6 ng/mL (≈ 1.48 nM). Besides, in experiment [2] (setting [5]), the IC50 came to 0.89 ng/mL (≈ 2.2 nM). Also, in experiment [3], the “Survival (days) 3 mg/kg SSV po” value is recorded as 9.2 days, the “Activity (%) 3 mg/kg SSV po” value was 90%, the “Survival (days) 10 mg/kg SSV po” value is given as 10.0 days and the “Activity (%) 10 mg/kg SSV po” value was determined as 99.22%.
As to `O=C(C[C@H]1CC[C@]2(CC1)OO[C@]1(O2)C2CC3CC(C2)CC1C3)N1CCC(O)CC1` [OZ297], in experiment [1] (setting [4]), the IC50 was found to be 0.49 ng/mL (≈ 1.21 nM). Besides, the IC50 in experiment [2] (setting [5]) was determined as 0.76 ng/mL (≈ 1.87 nM). Also, in experiment [3], the “Survival (days) 3 mg/kg SSV po” value was 7.6 days, the “Activity (%) 3 mg/kg SSV po” value is 83%, the “Survival (days) 10 mg/kg SSV po” value is 9.8 days and the “Activity (%) 10 mg/kg SSV po” value is 99.69%.
With `O=S(=O)(C[C@H]1CC[C@]2(CC1)OO[C@]1(O2)C2CC3CC(C2)CC1C3)c1ncccn1` [OZ299], in experiment [1] (setting [6]), the IC50 was 6.8 ng/mL (≈ 16.2 nM). The IC50 in experiment [2] (setting [7]) turned out to be 6.3 ng/mL (≈ 15 nM). In experiment [3], the “Survival (days) 3 mg/kg SSV po” value is recorded as 6.4 days, the “Activity (%) 3 mg/kg SSV po” value was determined as 0%, the “Survival (days) 10 mg/kg SSV po” value is recorded as 6.6 days and the “Activity (%) 10 mg/kg SSV po” value came to 36%.
For the compound `O=C(O)CCC(=O)NC[C@H]1CC[C@]2(CC1)OO[C@]1(O2)C2CC3CC(C2)CC1C3` [OZ300], the IC50 in experiment [1] (setting [4]) was 71 ng/mL (≈ 180 nM). In experiment [2] (setting [5]), the IC50 came out at 97 ng/mL (≈ 247 nM). Moreover, in experiment [3], the “Survival (days) 3 mg/kg SSV po” value is reported as 7.0 days, the “Activity (%) 3 mg/kg SSV po” value is 0%, the “Survival (days) 10 mg/kg SSV po” value is on record as 6.8 days and the “Activity (%) 10 mg/kg SSV po” value is given as 6%.
Consider `NC(=O)CNC(=O)C[C@H]1CC[C@]2(CC1)OO[C@]1(O2)C2CC3CC(C2)CC1C3` [OZ306], for which the IC50 in experiment [1] (setting [6]) was 3.9 ng/mL (≈ 10.3 nM). The IC50 in experiment [2] (setting [7]) was 3.6 ng/mL (≈ 9.51 nM). In experiment [3], the “Survival (days) 3 mg/kg SSV po” value stood at 8.2 days, the “Activity (%) 3 mg/kg SSV po” value worked out at 87% and the “Survival (days) 10 mg/kg SSV po” value worked out at 9.2 days.
On to `CS(=O)(=O)C[C@H]1CC[C@]2(CC1)OO[C@]1(O2)C2CC3CC(C2)CC1C3` [OZ307], for which, in experiment [1] (setting [6]), the IC50 came to 0.62 ng/mL (≈ 1.74 nM). Further, the IC50 in experiment [2] (setting [7]) turned out to be 0.88 ng/mL (≈ 2.47 nM). In experiment [3], the “Survival (days) 3 mg/kg SSV po” value was 7.8 days, the “Activity (%) 3 mg/kg SSV po” value was 74%, the “Survival (days) 10 mg/kg SSV po” value was 9.4 days and the “Activity (%) 10 mg/kg SSV po” value is listed as 98%.
With `O=C(O)CNC[C@H]1CC[C@]2(CC1)OO[C@]1(O2)C2CC3CC(C2)CC1C3` [OZ309], the IC50 in experiment [1] (setting [6]) worked out at 11 ng/mL (≈ 31.3 nM). In addition, the IC50 in experiment [2] (setting [7]) is 17 ng/mL (≈ 48.4 nM). Moreover, in experiment [3], the “Survival (days) 3 mg/kg SSV po” value is on record as 7.8 days, the “Activity (%) 3 mg/kg SSV po” value is recorded as 86%, the “Survival (days) 10 mg/kg SSV po” value was 8.8 days and the “Activity (%) 10 mg/kg SSV po” value worked out at 99.80%.
